How the values were obtained:
E-selectin = molecular target: T1, E-selectin (Homo sapiens, UniProt P16581); test: Inhibitory concentration against E-selectin
T1 sequence (P16581 whole entry): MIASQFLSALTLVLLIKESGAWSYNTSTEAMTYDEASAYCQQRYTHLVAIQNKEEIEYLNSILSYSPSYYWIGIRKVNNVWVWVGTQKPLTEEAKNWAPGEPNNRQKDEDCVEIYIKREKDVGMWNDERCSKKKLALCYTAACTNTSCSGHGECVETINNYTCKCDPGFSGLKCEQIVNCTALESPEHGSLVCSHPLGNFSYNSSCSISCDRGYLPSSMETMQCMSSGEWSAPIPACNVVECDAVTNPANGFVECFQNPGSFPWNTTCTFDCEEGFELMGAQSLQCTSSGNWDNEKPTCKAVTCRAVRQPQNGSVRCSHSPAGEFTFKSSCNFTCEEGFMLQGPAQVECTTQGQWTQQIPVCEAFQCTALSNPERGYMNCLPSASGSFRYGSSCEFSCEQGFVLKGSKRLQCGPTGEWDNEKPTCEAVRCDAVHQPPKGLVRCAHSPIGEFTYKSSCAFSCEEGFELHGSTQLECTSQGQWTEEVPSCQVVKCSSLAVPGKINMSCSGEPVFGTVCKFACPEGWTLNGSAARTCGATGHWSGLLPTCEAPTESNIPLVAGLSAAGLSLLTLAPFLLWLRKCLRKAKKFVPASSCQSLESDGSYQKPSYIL

Rotavirus [1] = test: Inhibitory concentration against Wa (human) strain of rotavirus; format: functional, organism-based
Rotavirus [2] = test: Inhibitory concentration against NCDV (bovine) strain of rotavirus; format: functional, organism-based

Structure (SMILES)	IC50 (E-selectin) [µM]	IC50 (Rotavirus [1]) [mM]	IC50 (Rotavirus [2]) [mM]
CC(=O)N[C@H]1[C@H]([C@H](O)[C@H](O)CO)O[C@@](O[C@H]2[C@@H](O)[C@@H](CO)O[C@@H](O[C@@H]([C@H](O[C@@H]3O[C@@H](C)[C@@H](O)[C@@H](O)[C@@H]3O)[C@H](C=O)NC(C)=O)[C@H](O)CO)[C@@H]2O)(C(=O)O)C[C@@H]1O [SIALYL LEWIS X]	700	–	–
COC1OC(CSC(C)C(=O)O)C(O)C(O)C1O (centres undefined)	–	> 25	> 25
C[C@@H]1O[C@@H](O[C@@H]2CCCC[C@H]2O[C@@H]2O[C@@H](CO)[C@H](O)[C@H](OCC(=O)O)[C@@H]2O)[C@@H](O)[C@@H](O)[C@@H]1O	500	–	–
